This is an account of results in publication PMC7115587 (European Journal of Medicinal Chemistry, 2014).

Structures are written as SMILES.

In data set [1] the test system is CQ resistant W2 strain of P. falciparum. In words: In vitro antimalarial activity. It counts as cell-based, Plasmodium falciparum.
Data set [2] deals with HCT116 (colon cancer cell line) cells. Nature of the data set: In vitro cytotoxicity.

Turning to `O=C1C(=O)N(CC(CO)NCCNc2ccnc3cc(Cl)ccc23)c2ccccc21` (stereo not drawn) [Compound 11a, 1-{2-[2-(7-Chloro-quinolin-4-ylamino)-ethylamino]-3-hydroxy-propyl}-1H-indole-2,3-dione], the “antimalarial activity (in words)” value in data set [1] is “better activity than chloroquine”.
As to `O=C1C(=O)N(CC(CO)NCCNc2ccnc3cc(Cl)ccc23)c2ccc(Cl)cc21` (stereo not drawn) [Compound 11b, 5-Chloro-1-{2-[2-(7-Chloro-quinolin-4-ylamino)-ethylamino]-3-hydroxy-propyl}-1H-indole-2,3-dione], the “cytotoxicity (in words)” value in data set [2] was “devoid of any cytotoxicity”.
Consider `O=C1C(=O)N(CC(CO)NCCCNc2ccnc3cc(Cl)ccc23)c2ccc(Cl)cc21` (stereo not drawn) [Compound 11f, 5-Chloro-1-{2-[3-(7-Chloro-quinolin-4-ylamino)-propylamino]-3-hydroxy-propyl}-1H-indole-2,3-dione], for which the “cytotoxicity (in words)” value in data set [2] is “devoid of any cytotoxicity”.
